Measurements taken from US20220304952A1, “COMPOSITION COMPRISING METFORMIN HCI, VITAMIN B12 AND AT LEAST ONE FLOW ADDITIVE” (DSM IP ASSETS B.V., priority 2019, published 2022).
Structures can show the parent of a compound that is named as a salt.

Columns and labels:
[1] = Powder flowability: mass flow rate through an orifice (Pharmatest PTG-S4); assay type: physicochemical; settings: orifice inner diameter 15 mm; 100 g powder
Method: The powder flowability was determined with a Pharmatest PTG-S4 automated powder characterization instrument (Pharma Test Apparatebau AG, Hainburg, Germany). This system measures the flow behavior of granules and powders in compliance with the current EP <2.9.36/17> and USP <1174> pharmacopoeia as well as with the international ISO 4324 standards.
Mass flow rate (g/min) was determined via the method of flow through an orifice. Flow rate is interpreted as the time needed for a specified amount of powder (100 g) to flow through an orifice with different diameters. A free-flowing powder should be able to flow through the whole set of diameters 5, 7, 9, 10, and 15 mm. The plot of flow rate vs. orifice diameter is referred as flow curve. Three parallel measurements were performed to determine the flow rate.
Flowability of the two mixtures was then tested as described in Example 1.

[2] = Vitamin B12 content uniformity (RSD from HPLC assays); assay type: physicochemical; settings: tablets with 549.9 mg calcium phosphate anhydrous and 0.0078 mg vitamin B12
Method: “Uniformity of content” ensures that a consistent dose of an active pharmaceutical ingredient (e.g. of vitamin B12) is maintained in each portion of a composition, even if the composition is subdivided into a large number of very small portions. By way of example, when controlling the quality of e.g. capsules or tablets, uniformity of content is determined. To do so, multiple e.g. capsules or tablets are selected at random and a suitable analytical method is applied to assay the individual content of the active pharmaceutical ingredient in each capsule or tablet. The relative standard deviation (RSD) can then be calculated. The lower the RSD, the better the uniformity of content. An RSD of more than […] is clearly unacceptable. The term “uniformity of vitamin B12 content” is used when multiple solid pharmaceutical dosage forms are selected at random and a suitable analytical method is applied to assay the individual content of vitamin B12 in each solid pharmaceutical dosage form.
Tablets were compressed with a Korsch XL 100 rotary tableting machine (Korsch A G, Berlin, Germany) using an oblong punch of 22×9 mm and compression force of 20 kN.
Vitamin B12 content uniformity was then evaluated via the standard deviation RSD (%) calculated from 10 individual assay determinations (HPLC analysis conducted by Eurofins®, Germany).

Flow rate, measured with orifice having the indicated inner diameter [1]	vitamin B12 content uniformity rating [2]	Compound
very low	–	CN(C)C(=N)N=C(N)N [metformin HCl]
–	extremely poor	cyanocobalamin [vitamin B12 crystals]
